Test results: patent US20250339415A1, “DISULFIDE COMPOUNDS AS MEDICAMENTS” (CYTACOAT AB, priority 2021, published 2025)
Values after ≈ are worked out from the molar mass of the structure shown.

What was measured:
Format in all cases: cell-based
Candida albicans = assay: Minimum inhibitory concentration (MIC), visible growth, YPD broth
Method: (§1) • 1. Using a sterile inoculating loop, transfer bacteria/Candida albicans from frozen stock culture and streak them on a fresh LA plate. • 2. Incubate the plate at 37° C. overnight (o/n) (18-24 h).
(§2) • 1. Prepare bacterial culture by adding 20 ml Mueller Hinton broth (*) to a 250-ml Erlenmeyer flask with sidearm. • 2. Using a sterile inoculating loop, pick approximately 10 colonies from the o/n bacterial culture and transfer bacteria to the flask. • 3. Incubate the E-flask with bacteria on a rotating shaker at 37° C. until OD590=0.40. This OD should equal an approximate bacterial count of 1×10^8 cfu/ml (**) • This is measured using a colorimeter (or spectrophotometer). Set reference and press R (=reference) first, then measure the bacterial culture by pressing T (=test). • 4. At OD590 0.40, serially dilute the bacterial suspension 1:10 000 in Mueller Hinton broth to obtain a bacterial target concentration of 1×10^4 cfu/ml. Determine the initial inoculation by serially diluting 0.1 ml in 0.9 ml blanks of sterile PBS and plating 0.1 ml aliquots to LA plates, preferably. • 5. Different concentrations of the tested compound are prepared in 0.6-0.8 ml of the final dilution of bacterial suspension and placed in 2-ml test tubes. • 6. Incubate test tubes in an orbital shaker incubator at 37° C. for 24 h.
(§3) • 7. Analyze visible growth, i.e. “Foggy” or “Clear”. MIC is being defined as the interval between the highest “Foggy” and the lowest “Clear” concentration of the compound.
(*) When testing Candida albicans, Yeast extract Peptone Dextrose (YPD) broth is being used.
(**) For Candida albicans it is equal to 1×10^7
Different concentrations of PDEA were also prepared in Yeast extract Peptone Dextrose (YPD) broth. Candida albicans were inoculated to a concentration of 20 000 CFU/ml and incubated at 37° C. for 24 hours. Readouts were “Clear” and “Foggy”.
Different concentrations of the quaternary ammonium PDEA (Example 2) were also prepared in Yeast extract Peptone Dextrose (YPD) broth. Candida albicans were inoculated to a concentration of 20 000 CFU/ml and incubated at 37° C. for 24 hours. Readouts were “Clear” and “Foggy”.
Different concentrations of the Para position-PDEA” is (S)-4-pyridylthio cysteamine were also prepared in Yeast extract Peptone Dextrose (YPD) broth. Candida albicans were inoculated to a concentration of 20 000 CFU/ml and incubated at 37° C. for 24 hours. Readouts were “Clear” and “Foggy”.
Different concentrations of “Carboxylic acid PDEA” is 3-(2-Pyridyldithio)propanoic acid (CAS: 68617-64-1) were also prepared in Yeast extract Peptone Dextrose (YPD) broth. Candida albicans were inoculated to a concentration of 20 000 CFU/ml and incubated at 37° C. for 24 hours. Readouts were “Clear” and “Foggy”.

[1] = system: Pseudomonas aeruginosa PA02; assay: Minimum inhibitory concentration (MIC), visible growth
Method: as §1, §2, §3
(§4) Different concentrations of PDEA (Example 1) in Mueller Hinton medium were prepared. Bacteria were inoculated to a concentration of 20 000 CFU/ml and incubated at 37° C. for 24 hours. Minimum inhibitory concentrations (MICs) were determined by analyzing visible growth, i.e., readouts were “Clear” and “Foggy”.
(§5) Different concentrations of the quaternary ammonium PDEA (Example 2) in Mueller Hinton medium were prepared. Bacteria were inoculated to a concentration of 20 000 CFU/ml and incubated at 37° C. for 24 hours. Minimum inhibitory concentrations (MICs) were determined by analyzing visible growth, i.e., readouts were “Clear” and “Foggy”.
(§6) Different concentrations of this compound in Mueller Hinton medium were prepared. Bacteria were inoculated to a concentration of 20 000 CFU/ml and incubated at 37° C. for 24 hours. Minimum inhibitory concentrations (MICs) were determined by analyzing visible growth, i.e., readouts were “Clear” and “Foggy”.
(§7) Different concentrations of this compound were prepared in Mueller Hinton broth. Bacteria were inoculated to a concentration of 20 000 CFU/ml and incubated at 37° C. for 24 hours. Minimum inhibitory concentrations (MICs) were determined by analyzing visible growth, i.e., readouts were “Clear” and “Foggy”.

[2] = system: Enterococcus faecalis #28 (KI, Clinical Isolate); assay: as above
Method: as §1, §2, §3, §4, §5, §6, §7

[3] = system: Enterococcus faecium #11 (KI, Clinical Isolate); assay: as above
Method: as §1, §2, §3, §4, §5, §6, §7

[4] = system: Staphylococcus epidermidis Se19 (Clinical Isolate, Jan Ingemar Falk); assay: as above
Method: as §1, §2, §3, §4, §5, §6, §7

[5] = system: Klebsiella pneumoniae AO15200; assay: as above
Method: as §1, §2, §3, §4, §5, §6, §7

[6] = system: Staphylococcus aureus B5381; assay: as above
Method: as §1, §2, §3, §4, §5, §6, §7

Escherichia coli CFT073 = assay: as above
Method: as §1, §2, §3, §4, §5, §6, §7

MIC (Candida albicans; Candida albicans, YPD broth, 20 000 CFU/ml, 37° C., 24 hours, read-out: MIC): 1600 to 3200 µM (≈ 298 to 596 µg/mL)
MIC ([1]; Pseudomonas aeruginosa, PA02, Mueller Hinton, 20 000 CFU/ml, 37° C., 24 hours, read-out: MIC): 400 to 800 µM (≈ 74.5 to 149 µg/mL)
MIC ([2]; Enterococcus faecalis, Mueller Hinton, 20 000 CFU/ml, 37° C., 24 hours, read-out: MIC): 200 to 400 µM (≈ 37.3 to 74.5 µg/mL)
MIC ([3]; Enterococcus faecium, Mueller Hinton, 20 000 CFU/ml, 37° C., 24 hours, read-out: MIC): 100 to 200 µM (≈ 18.6 to 37.3 µg/mL)
MIC ([4]; Staphylococcus epidermidis, Mueller Hinton, 20 000 CFU/ml, 37° C., 24 hours, read-out: MIC): 100 to 200 µM (≈ 18.6 to 37.3 µg/mL)
MIC ([5]; Klebsiella pneumoniae, AO15200, Mueller Hinton, 20 000 CFU/ml, 37° C., 24 hours, read-out: MIC): 200 to 400 µM (≈ 37.3 to 74.5 µg/mL)
MIC ([6]; Staphylococcus aureus, B5381, Mueller Hinton, 20 000 CFU/ml, 37° C., 24 hours, read-out: MIC): 200 to 400 µM (≈ 37.3 to 74.5 µg/mL)
MIC (Escherichia coli CFT073; Escherichia coli, CFT073, Mueller Hinton, 20 000 CFU/ml, 37° C., 24 hours, read-out: MIC): 200 to 400 µM (≈ 37.3 to 74.5 µg/mL)
Compound: NCCSSc1ccncc1 [Example 3, (S)-4-pyridylthio cysteamine]
visible growth readout (Candida albicans; 0.01 mM): Foggy
visible growth readout (Candida albicans; 0.05 mM): Foggy
visible growth readout (Candida albicans; 0.1 mM): Foggy
visible growth readout (Candida albicans; 0.2 mM): Foggy
visible growth readout (Candida albicans; 0.4 mM): Foggy
visible growth readout (Candida albicans; 0.8 mM): Foggy
visible growth readout (Candida albicans; 1.6 mM): Foggy
visible growth readout (Candida albicans; 3.2 mM): Clear
visible growth readout ([1]; 0.01 mM): Foggy
visible growth readout ([1]; 0.05 mM): Foggy
visible growth readout ([1]; 0.1 mM): Foggy
visible growth readout ([1]; 0.2 mM): Foggy
visible growth readout ([1]; 0.4 mM): Foggy
visible growth readout ([1]; 0.8 mM): Clear
visible growth readout ([1]; 1.6 mM): Clear
visible growth readout ([1]; 3.2 mM): Clear
visible growth readout ([2]; 0.01 mM): Foggy
visible growth readout ([2]; 0.05 mM): Foggy
visible growth readout ([2]; 0.1 mM): Foggy
visible growth readout ([2]; 0.2 mM): Foggy
visible growth readout ([2]; 0.4 mM): Clear
visible growth readout ([2]; 0.8 mM): Clear
visible growth readout ([2]; 1.6 mM): Clear
visible growth readout ([2]; 3.2 mM): Clear
visible growth readout ([3]; 0.01 mM): Foggy
visible growth readout ([3]; 0.05 mM): Foggy
visible growth readout ([3]; 0.1 mM): Foggy
visible growth readout ([3]; 0.2 mM): Clear
visible growth readout ([3]; 0.4 mM): Clear
visible growth readout ([3]; 0.8 mM): Clear
visible growth readout ([3]; 1.6 mM): Clear
visible growth readout ([3]; 3.2 mM): Clear
visible growth readout ([4]; 0.01 mM): Foggy
visible growth readout ([4]; 0.05 mM): Foggy
visible growth readout ([4]; 0.1 mM): Foggy
visible growth readout ([4]; 0.2 mM): Clear
visible growth readout ([4]; 0.4 mM): Clear
visible growth readout ([4]; 0.8 mM): Clear
visible growth readout ([4]; 1.6 mM): Clear
visible growth readout ([4]; 3.2 mM): Clear
visible growth readout ([5]; 0.01 mM): Foggy
visible growth readout ([5]; 0.05 mM): Foggy
visible growth readout ([5]; 0.1 mM): Foggy
visible growth readout ([5]; 0.2 mM): Foggy
visible growth readout ([5]; 0.4 mM): Clear
visible growth readout ([5]; 0.8 mM): Clear
visible growth readout ([5]; 1.6 mM): Clear
visible growth readout ([5]; 3.2 mM): Clear
visible growth readout ([6]; 0.01 mM): Foggy
visible growth readout ([6]; 0.05 mM): Foggy
visible growth readout ([6]; 0.1 mM): Foggy
visible growth readout ([6]; 0.2 mM): Foggy
visible growth readout ([6]; 0.4 mM): Clear
visible growth readout ([6]; 0.8 mM): Clear
visible growth readout ([6]; 1.6 mM): Clear
visible growth readout ([6]; 3.2 mM): Clear
visible growth readout (Escherichia coli CFT073; 0.01 mM): Foggy
visible growth readout (Escherichia coli CFT073; 0.05 mM): Foggy
visible growth readout (Escherichia coli CFT073; 0.1 mM): Foggy
visible growth readout (Escherichia coli CFT073; 0.2 mM): Foggy
visible growth readout (Escherichia coli CFT073; 0.4 mM): Clear
visible growth readout (Escherichia coli CFT073; 0.8 mM): Clear
visible growth readout (Escherichia coli CFT073; 1.6 mM): Clear
visible growth readout (Escherichia coli CFT073; 3.2 mM): Clear
